PMC10630452, “The tumor-enriched small molecule gambogic amide suppresses glioma by targeting WDR1-dependent cytoskeleton remodeling” (Signal Transduction and Targeted Therapy, 2023)

Tests used:
[1] = BBB permeability assay in U87MG-SLC intracranial xenograft mice; assay type: in vivo, mouse; conditions: nude, mouse, in vivo, iv, 10 mg/kg
Description: (§1) Fig. 2 The BBB permeability and tumor suppressor ability of GA-amide compared with TMZ. GA-amide (a) or TMZ (b) concentration in the tumor area and normal brain tissue following a single injection of GA-amide (10 mg/kg, i.v.) or TMZ (10 mg/kg, i.v.). The data are presented as the means ± SEMs (n = 3). c Western blot analysis of the expression of TrkA in mouse tumor tissues (T) and normal brain tissues (N), n = 4. d Western blot analysis of glycosylated TrkA expression in human normal brain tissues (N) and glioma tissues of different grades. e Time curve of GA-amide and TMZ treatment in a cell viability assay (MTS) in T2-4, GSC2 and T12-1 cells. f–h A PDX mouse model was established, and the mice were treated with vehicle (control, n = 9), 2 mg/kg GA-amide (n = 9), 2 mg/kg GAC (n = 9) or […] TMZ (n = 8) by i.p. injection daily for 10 days. A summary photograph is presented in (f), statistical results in (g) and the body weights of mice in (h); the mean ± SEMs are shown. n.s: P ≥ 0.05, *P < 0.05, **P < 0.01 and ***P < 0.001 compared with the control group by one-way ANOVA at each time point
Mice bearing U87MG-SLC cell intracranial xenografts were injected with GA-amide (i.v.), and tissues from the brain tumor area and normal brain tissues were collected at different times after injection. […] The diagnostic product ions for GA-amide were detected at m/z 628.3/572.2.

[2] = Acute toxicity assay, mice serum biochemical indexes; assay type: in vivo
[3] = tested on: TMZ-resistant cells (T2-4, GSC2 and T12-1); assay: Time curve cell viability assay (MTS); assay type: cell-based; conditions: PDCs and GSCs
Description: as §1

[4] = molecular target: T1, His-WD2-7 (WD2 to WD7 repeats of WDR1) (Homo sapiens, UniProt O75083); assay: SPR analysis (Biacore 8 K); assay type: binding; conditions: immobilized His-WD2-7, 25 °C, 5% DMSO
T1 construct: His; made in house; host or cells: Arctic-Express (E. coli)
Description: The binding affinities of GA-amide for its target proteins GST-WDR1, GST, and His-WD2-7 were assayed by using the SPR-based Biacore 8 K instrument (GE Healthcare). The CM5 sensor chip was used to immobilize 15,000 RU of the target protein to the sensor surface by the standard amine coupling reaction at 25 °C in PBS running buffer. Gradient concentrations of GA-amide containing 5% DMSO were injected into the channels to evaluate the binding affinity. The dissociation constants (KD values) of the GA-amide–protein complexes were calculated with Biacore 8 K Evaluation Software.
The pGEX4T-1 plasmid was used to express the GST-WDR1 and GST proteins, while the pET-28c plasmid was used to express the His-WD2-7 protein. Arctic-ExpressTM was used for the production of the GST-WDR1, GST and His-WD2-7 fusion proteins. The cultures were grown at 37 °C, and when the OD600 reached 0.5–0.8, the protein was expressed after 0.5 mM IPTG was added. After 4 h, the cells were collected and washed with cold PBS twice.
For His-WD2-7 protein purification, cells were first lysed by sonication. WD2-7 was present the precipitate and solubilized as described above. Then, the protein was loaded onto a Balanced Ni-IDA-Sepharose Cl-6B column (Novagen) and washed with Ni-IDA Washing-Buffer (20 mM Tris-HCl, 20 mM imidazole, 0.15 M NaCl, pH 8.0). […]

hippocampal neurons = conditions: cited from earlier work
[5] = tested on: PDCs (T2-4, T12-1, T12-2) and GSC2 cells; assay: Limiting dilution assay (self-renewal); assay type: cell-based; conditions: pretreatment for 4 h
Description: For the tumor sphere formation assay, cells were inoculated in 96-well plates at 600 cells/well in a volume of 100 μL. The tumor spheres with a diameter of 50–100 μm and a diameter of over 100 μm were counted separately under a microscope after 14 days. For the limiting dilution assay, cells were dissociated to generate a single-cell suspension, which was diluted along a gradient for seeding in a 96-well plate at concentrations ranging from 400 cells to 25 cells in a volume of 100 μL per well.

T1 sequence (O75083 48-306 limits assumed): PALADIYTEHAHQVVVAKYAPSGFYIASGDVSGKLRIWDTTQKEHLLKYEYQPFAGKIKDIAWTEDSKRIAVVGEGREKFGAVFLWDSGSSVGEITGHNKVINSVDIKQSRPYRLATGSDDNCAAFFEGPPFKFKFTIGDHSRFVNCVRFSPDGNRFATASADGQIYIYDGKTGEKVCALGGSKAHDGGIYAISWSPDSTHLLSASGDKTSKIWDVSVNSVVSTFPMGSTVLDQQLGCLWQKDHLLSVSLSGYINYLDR

SMILES: CC(C)=CCC[C@]1(C)C=Cc2c(O)c3c(c(CC=C(C)C)c2O1)O[C@]12C(=C[C@@H]4CC1C(C)(C)O[C@@]2(C/C=C(/C)C(N)=O)C4=O)C3=O [GA-amide, gambogic amide]
- Tmax [1]: 2 min
- ALB (albumin) ([2]; 1mg/kg one-time i.v.): 19.5 ± 2.4 g/L
- ALP (alkaline phosphatase) ([2]; 1mg/kg one-time i.v.): 214±36 U/L
- ALT (alanine aminotransferase) ([2]; 1mg/kg one-time i.v.): 26±2 U/L
- AST (aspartate aminotransferase) ([2]; 1mg/kg one-time i.v.): 99±20 U/L
- CA (calcium) ([2]; 1mg/kg one-time i.v.): 2.53 ± 0.12 mmol/L
- CHE (cholinesterase) ([2]; 1mg/kg one-time i.v.): 7909±1092 U/L
- CK (creatine kinase) ([2]; 1mg/kg one-time i.v.): 910±503 U/L
- CRE (creatinine) ([2]; 1mg/kg one-time i.v.): 11.1 ± 1.1 µmol/L
- Cl ([2]; 1mg/kg one-time i.v.): 112.0 ± 2.2 mmol/L
- GGT (Gammagliutamyltranspherase) ([2]; 1mg/kg one-time i.v.): -1±1 U/L
- GLU (glucose) ([2]; 1mg/kg one-time i.v.): 8.21 ± 3.50 mmol/L
- K ([2]; 1mg/kg one-time i.v.): 5.99 ± 0.84 mmol/L
- NA ([2]; 1mg/kg one-time i.v.): 147.4 ± 1.5 mmol/L
- TBA (total bile acid) ([2]; 1mg/kg one-time i.v.): 8.6 ± 6.4 µmol/L
- TBIL (total bilirubin) ([2]; 1mg/kg one-time i.v.): 3.3 ± 0.5 µmol/L
- TCHO (total cholesterol) ([2]; 1mg/kg one-time i.v.): 4.34 ± 1.10 mmol/L
- TG (triglyceride) ([2]; 1mg/kg one-time i.v.): 1.30 ± 0.29 mmol/L
- TP (total protein) ([2]; 1mg/kg one-time i.v.): 54.5 ± 6.7 g/L
- UREA ([2]; 1mg/kg one-time i.v.): 8.11 ± 1.58 mmol/L
- ALB (albumin) ([2]; 10mg/kg one-time i.v.): 20.0 ± 0.9 g/L
- ALP (alkaline phosphatase) ([2]; 10mg/kg one-time i.v.): 217±33 U/L
- ALT (alanine aminotransferase) ([2]; 10mg/kg one-time i.v.): 37±12 U/L
- AST (aspartate aminotransferase) ([2]; 10mg/kg one-time i.v.): 113±22 U/L
- CA (calcium) ([2]; 10mg/kg one-time i.v.): 2.54 ± 0.07 mmol/L
- CHE (cholinesterase) ([2]; 10mg/kg one-time i.v.): 7828±721 U/L
- CK (creatine kinase) ([2]; 10mg/kg one-time i.v.): 1157±539 U/L
- CRE (creatinine) ([2]; 10mg/kg one-time i.v.): 10.9 ± 0.6 µmol/L
- Cl ([2]; 10mg/kg one-time i.v.): 111.5 ± 1.7 mmol/L
- GGT (Gammagliutamyltranspherase) ([2]; 10mg/kg one-time i.v.): -1±1 U/L
- GLU (glucose) ([2]; 10mg/kg one-time i.v.): 5.61 ± 0.60 mmol/L
- K ([2]; 10mg/kg one-time i.v.): 5.97 ± 0.33 mmol/L
- NA ([2]; 10mg/kg one-time i.v.): 147.7 ± 2.0 mmol/L
- TBA (total bile acid) ([2]; 10mg/kg one-time i.v.): 7.9 ± 4.5 µmol/L
- TBIL (total bilirubin) ([2]; 10mg/kg one-time i.v.): 3.8 ± 1.0 µmol/L
- TCHO (total cholesterol) ([2]; 10mg/kg one-time i.v.): 4.75 ± 0.93 mmol/L
- TG (triglyceride) ([2]; 10mg/kg one-time i.v.): 1.62 ± 0.48 mmol/L
- TP (total protein) ([2]; 10mg/kg one-time i.v.): 55.5 ± 1.8 g/L
- UREA ([2]; 10mg/kg one-time i.v.): 8.62 ± 1.32 mmol/L
- viability of TMZ-resistant cells over time [3]: effectively reduced the viability of TMZ-resistant cells
- Kd [4]: 46.7 µM
- toxicity in vitro (hippocampal neurons; 0.5 μM): did not display any toxicity in vitro
- concentrations with protective effect on hippocampal neurons against glutamate-triggered apoptosis (hippocampal neurons; also induced neurite outgrowth in PC12 cells): 10 to 50 nM
- self-renewal (limiting dilution) [5]: suppressed
